# Assay results reported in US8740843B2, “Coated balloon catheter” (Cook Medical Technologies LLC, priority 2009, dated 2014).
# Assay: Elution of paclitaxel from coated balloon catheter assemblies in porcine serum elution medium (HPLC)
# Type: physicochemical
# Settings: contrast media vs saline
# Experimental: The rate of paclitaxel elution in each of the paclitaxel-coated balloon catheter assemblies described in Example 1 is analyzed in a porcine serum at 37° C. The coated balloon catheter assemblies are then divided into two groups, A and B. The coated balloon catheter assembly in Group A is designated to deliver a saline solution through the apertures of the outer balloon, while the coated balloon catheter assembly in Group B is designated to deliver a contrast media through the apertures of the outer balloon. The contrast media used is ISOVUE®-370 of Bracco Diagnostics (Princeton, N.J.), which included 370 mgl/mL of Iopamidol.
# The coated balloon catheter assemblies, expanded to 4 ATM, is contacted with the porcine serum elution medium and continuously stirred for a desired period of time (e.g., at least one hour) selected to gradually dissolve the paclitaxel at a rate similar to dissolution in blood. […] The amount of the paclitaxel dissolved is measured as a function of time by monitoring with High Performance Liquid Chromatography (HPLC) the porcine serum elution medium after contact with the coated balloon catheter assembly. […] The outer balloon of each of the coated balloon catheter assemblies is then detached from the assembly and analyzed using HPCL to measure the amount of paclitaxel left on the coated outer balloon after being in contact with the elution medium for 60 minutes.
smiles,measurement,setting,value
CC(=O)O[C@H]1C(=O)[C@@]2(C)[C@H]([C@H](OC(=O)c3ccccc3)[C@]3(O)C[C@H](OC(=O)[C@H](O)[C@@H](NC(=O)c4ccccc4)c4ccccc4)C(C)=C1C3(C)C)[C@]1(OC(C)=O)CO[C@@H]1C[C@@H]2O [paclitaxel],lower amount of PTX on the outer balloon than Group A balloon catheters,after 60 minutes,≤ 15%
same,PTX elutes faster than Group A balloon catheters,time period of 2 to 10 minutes,2-3 times
